Test results taken from paper PMC9501129 (Pharmaceutics, 2022).
Like-named read-outs stand apart in the source and are kept apart here.

Tests used:
[1] = cited from earlier work
[2] = ex-vivo dually perfused human cotyledon; cited from earlier work
[3] = Amniotic fluid drug concentration in mouse pregnancy model (HPLC-MSMS); format: in vivo, C57BL/6J mice; details: female, C57BL/6J, mouse, amniotic fluid / maternal plasma, oral, pregnant mice
Source text: All animal experiments were approved by the University Health Network Animal Use Committee (protocol #2575) and performed according to the policies and guidelines of the Canadian Council on Animal Care. C57BL/6J mice bred in-house (original breeders from Jackson Laboratory RRID:IMSR JAX:000664) were maintained under a 12-h light/dark cycle, with ad libitum access to food and water. Animals were acclimated to their surroundings for 1 week prior to experiment initiation. Males were isolated for 7 days prior to mating. Female mice (7–12 weeks of age) were mated with males at a ratio of 2:1. Presence of vaginal plug was denoted as gestational day 0.5 (GD0.5). Pregnancy was confirmed by weight gain of >1.5 g on GD9.5 and >3 g on GD13.5. […] The equivalent mouse mg/kg dose was calculated based on the human dose divided by an assumed average human weight of 60 kg. […] On GD15.5, mice underwent saphenous bleed 24 h after the GD14.5 dose administration (trough). Immediately after the saphenous bleed, mice were dosed with the appropriate drug regimen and sacrificed 1 h post-treatment (peak), at which time blood was collected by cardiac puncture and amniotic fluid was collected by dissecting the uterus, puncturing the amniotic sac, and draining the amniotic fluid into a sterile dish. Amniotic fluid was pooled for the entire litter. Samples from 2 dams per arm were analyzed for drug levels.
Briefly, 50 μL of plasma or amniotic fluid was spiked with internal standard (ritonavir-d6) followed by protein precipitation with acetonitrile and filtration. Filtrates were diluted 1:9 with ammonium acetate buffer (10 mM) and analyzed by the HPLC-MSMS system, consisting of a Shimadzu Nexera XR high-performance liquid chromatograph (Shimadzu, Columbia, MD, USA) coupled with a SCIEX API 4500 QqQ mass spectrometer (SCIEX, Concord, ON, Canada). Chromatographic separation by Mobile Phase A (10% methanol, 5% 50 mM ammonium acetate, 85% 0.25% acetic acid pH 3.6 ± 0.2) and Mobile Phase B (90% methanol, 5% 50 mM ammonium acetate, 5% 0.25% acetic acid pH 6.6 ± 0.2) was performed under linear gradient conditions (flow rate 0.7 mL/min) on a reverse-phase Zorbax XDB-C18 column (Agilent Technologies, Santa Clara, CA, USA) maintained at 40 °C. […] HPLC-MSMS data were acquired using Analyst (v 1.6.3, SCIEX, Concord, ON, Canada) and analyzed with MultiQuant software (v 3.0.3, SCIEX, Concord, ON, Canada). […] Positive controls spiked in-house and prepared by an external laboratory during a sample exchange program were included in all runs.

pregnant rats [4] = details: BIC orally up to 300 mg/kg/day, gestational day 6 to lactation/postpartum day 24; cited from earlier work
HIV = details: compared to RAL and EVG; cited from earlier work
pregnant rats [5] = details: BIC orally 5, 30, or 300 mg/kg/day, gestational day 7 through 17; cited from earlier work
pregnant rabbits = details: cited from earlier work

Structure (SMILES)	Birth defects observed ([1]; interim report, 140 pregnancies in women treated with BIC during periconception or pregnancy)	Virological suppression through delivery ([1]; two pregnant women on BIC)	Placental transfer [2]	Kp at 1 h ([3]; 1× to 10× BIC, 1 h after dosing, read-out: Ratio of drug in the amniotic fluid to that in maternal plasma)	Kp at 1 h ([3]; 20× BIC dose, 1 h after dosing, read-out: Ratio of drug in the amniotic fluid to that in maternal plasma)	Kp at 1 h ([3]; BIC 0.83 mg/kg (1×) oral gavage once daily GD11.5-GD15.5 with TDF 50 mg/kg + FTC 33.3 mg/kg, mean (SD), n=2, read-out: Amniotic: Maternal Plasma Ratio 1 h)	Kp at 1 h ([3]; BIC 4.15 mg/kg (5×) oral gavage once daily GD11.5-GD15.5 with TDF 50 mg/kg + FTC 33.3 mg/kg, mean (SD), n=2, read-out: Amniotic: Maternal Plasma Ratio 1 h)	Kp at 1 h ([3]; BIC 8.3 mg/kg (10×) oral gavage once daily GD11.5-GD15.5 with TDF 50 mg/kg + FTC 33.3 mg/kg, mean (SD), n=2, read-out: Amniotic: Maternal Plasma Ratio 1 h)	Kp at 1 h ([3]; BIC 16.6 mg/kg (20×) oral gavage once daily GD11.5-GD15.5 with TDF 50 mg/kg + FTC 33.3 mg/kg, mean (SD), n=2, read-out: Amniotic: Maternal Plasma Ratio 1 h)	Adverse effects in fetuses or pups (pregnant rats [4])	In vitro resistance profile (HIV)	Embryo-fetal effects (pregnant rats [5])	Maternal and pregnancy findings (pregnant rabbits; BIC 1000 mg/kg/day)	Embryo-fetal effects (pregnant rabbits; BIC orally 100, 300, or 1000 mg/kg/day, gestational day 7 through 19)	Drug levels in pregnancy ([1]; second and third trimester)
O=C(NCc1c(F)cc(F)cc1F)c1cn2c(c(O)c1=O)C(=O)N1[C@H]3CC[C@H](C3)O[C@@H]1C2 [BIC, bictegravir]	three	remained virologically suppressed through delivery	low placental transfer	0.021 to 0.036	0.112	0.021	0.021	0.036	0.112	no significant adverse effects in fetuses or pups	improved in vitro resistance profile	no adverse embryo-fetal effects	Spontaneous abortion, decreased body weight, and maternal toxicity	no adverse embryo-fetal effects	–
COc1cc2c(cc1Cc1cccc(Cl)c1F)c(=O)c(C(=O)O)cn2[C@H](CO)C(C)C [EVG, elvitegravir]	–	–	–	–	–	–	–	–	–	–	–	–	–	–	inadequate levels in the second and third trimester
